In article PMC6886403, “Structure-Based and Molecular Modeling Studies for the Discovery of Cyclic Imides as Reversible Cruzain Inhibitors With Potent Anti-Trypanosoma cruzi Activity” (Frontiers in Chemistry, 2019):

What was measured:
cruzain = target: T1, cruzain (Trypanosoma cruzi, UniProt P25779); test: Cruzain inhibition assay (cleavage of fluorogenic substrate Z-Phe-Arg-AMC); type: biochemical; details: for inhibition at 100 µM: at 100 μM inhibitor, mean of three measurements, read-out: Percent inhibition against cruzain; for IC50: mean ± SD of three individual experiments, at least six inhibitor concentrations in triplicate, 1.5 nM cruzain, 5.0 μM Z-Phe-Arg-AMC, pH 5.5; for decrease in potency against cruzain relative to 3a: less active than 3a; for mechanism of inhibition: Lineweaver-Burk plots, eight substrate and four inhibitor concentrations
T1 construct: inferred from Ni-NTA purification of the pro-enzyme; made in house; host or cells: Escherichia coli (M15)
Procedure: The catalytic activity of cruzain was monitored by cleavage of the fluorogenic substrate Z-Phe-Arg-aminomethyl coumarin (Z-Phe-Arg-AMC) as previously described (Ferreira et al., [2014]). The enzyme kinetics assays were performed in 0.1 M sodium acetate buffer (pH 5.5) with 5 mM dithiothreitol (DTT) and 0.01% Triton X-100. […] The enzyme reaction was monitored for 5 min at 30°C in 96-well black flat bottom plates, and the activity was calculated based on the initial rates compared with a control (DMSO). Wavelengths of 355 nm for excitation and 460 nm for emission were used. IC50 values were independently determined by determining rate measurements for at least six inhibitor concentrations, each evaluated in triplicate. To determine the mechanism of inhibition, eight substrate concentrations and four inhibitor concentrations were used, each in triplicate. The mechanism of inhibition was determined by Lineweaver-Burk plots. SigmaPlot 10.0 (Systat Software Inc., Erkrath, Germany) was used to determine the IC50 values.

[1] = test system: T. cruzi intracellular amastigotes; test: T. cruzi intracellular amastigote assay (Tulahuen lacZ strain, CPRG readout); type: cell-based, Trypanosoma cruzi; details: intracellular amastigotes; for IC50: Trypanosoma cruzi, Tulahuen strain in HFF-1 fibroblasts, 120 h, mean ± SD of two experiments, read-out: IC50 T. cruzi
Procedure: In vitro assays against T. cruzi were performed as described previously (Ferreira et al., [2014]). The T. cruzi Tulahuen strain, which expresses the E. coli β-galactosidase gene lacZ (Buckner et al., [1996]), was provided by Frederick S. Buckner (University of Washington, Seattle, WA). Stock solutions of the synthesized compounds were prepared in 100% DMSO. Epimastigotes were grown in liver infusion tryptone (LIT) supplemented with 10% fetal calf serum (FCS), penicillin and streptomycin (28°C). Metacyclogenesis from epimastigotes to trypomastigotes was induced by incubation of the epimastigotes in Grace's insect medium (Sigma-Aldrich, St. Louis, MO) supplemented with 10% FCS (28°C). HFF-1 human fibroblasts were seeded at 2 × 10^3/well (80 μL) in 96-well tissue culture plates in RPMI 1640 without phenol red supplemented with 10% FCS and incubated overnight (37°C, 5% CO2). Next, trypomastigotes were added at 1.0 × 10^4/well (20 μL), and the plates were incubated (37°C, 5% CO2). After 24 h, 3-fold serial dilutions (50 μL) of the synthesized compounds were added at concentrations ranging from 0.1 to 100 μM, and the plates were incubated (37°C, 5% CO2). Each compound concentration was evaluated in triplicate. All plates included BZ (Sigma-Aldrich) as a positive control and untreated wells (100% growth) as a negative control. After 120 h, 50 μL of chlorophenol red β-D-galactopyranoside (CPRG, Sigma-Aldrich) and IGEPAL CA-630 (Sigma-Aldrich) (0.1%) was added to each well. The absorbance was measured at 570 nm in an automated microplate reader, and the data were transferred to SigmaPlot 10.0 (Systat Software Inc.) for IC50 value calculation.

[2] = Cytotoxicity in HFF-1 cells (MTS tetrazolium assay); type: cell-based; details: human, HFF-1 fibroblasts, mean ± SD of two independent assays
Procedure: (§1) The cytotoxicities of the compounds against HFF-1 fibroblasts and HepG2 hepatocytes were evaluated using the MTS tetrazolium assay (Promega, Madison, WI) (Barltrop et al., [1991]). HFF-1 fibroblasts were seeded at 2 × 10^3/well in 96-well culture plates in RPMI 1640 without phenol red supplemented with 10% FCS and incubated overnight (37°C, 5% CO2). HepG2 hepatocytes were seeded at 6 × 10^3/well in 96-well culture plates in DMEM (Cultilab, Campinas SP) supplemented with 10% FCS and incubated overnight (37°C, 5% CO2). The compounds were added in 3-fold serial dilutions, and the plates were incubated at 37°C with 5% CO2. Each compound concentration was evaluated in triplicate. All plates included doxorubicin (Sigma-Aldrich, St. Louis, MO) as a positive control and untreated wells (100% growth) as a negative control. After 72 h, 20 μL of MTS was added, and the plates were incubated for 4 h. The absorbance was measured at 490 nm in an automated microplate reader, and the data were transferred to SigmaPlot 10.0 (Systat Software Inc., Erkrath, Germany) for IC50 value calculation. The percent of nonviable cells was determined and compared to the negative control wells (100% growth).

[3] = Cytotoxicity in HepG2 cells (MTS tetrazolium assay); type: cell-based; details: human, HepG2 hepatocytes, mean ± SD of two independent assays
Procedure: as §1

T1 sequence (P25779 123-337 limits assumed): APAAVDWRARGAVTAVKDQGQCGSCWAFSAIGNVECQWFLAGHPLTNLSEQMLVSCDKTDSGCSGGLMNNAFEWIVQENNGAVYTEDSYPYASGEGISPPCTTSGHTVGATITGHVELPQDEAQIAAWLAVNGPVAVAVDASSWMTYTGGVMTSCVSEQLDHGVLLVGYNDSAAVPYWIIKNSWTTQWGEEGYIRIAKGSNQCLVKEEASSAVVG

## COc1ccc(NC(=O)COC(=O)[C@H](CC(C)C)N2C(=O)C3CC=CCC3C2=O)cc1Cl (stereo partly drawn) [3a, 2-((3-chloro-4-methoxyphenyl)amino)-2-oxoethyl (2S)-2-(1,3-dioxo-1,3,3a,4,7,7a-hexahydro-2H-isoindol-2-yl)-4-methylpentanoate]
cruzain
  inhibition at 100 µM: 88%
  IC50: 2.2 ± 0.4 µM
[1]
  IC50: > 100 µM
  activity against T. cruzi (in words): not active

## COc1ccc(NC(=O)COC(=O)[C@H](CC(C)C)N2C(=O)C3CC=CCC3C2=O)cc1 (stereo partly drawn) [3b, 2-((4-methoxyphenyl)amino)-2-oxoethyl (2S)-2-(1,3-dioxo-1,3,3a,4,7,7a-hexahydro-2H-isoindol-2-yl)-4-methylpentanoate]
cruzain
  inhibition at 100 µM: 86%
  IC50: 13.9 µM

## CC(C)C[C@@H](C(=O)OCC(=O)Nc1cccc(Cl)c1)N1C(=O)C2CC=CCC2C1=O (stereo partly drawn) [3c, 2-((3-chlorophenyl)amino)-2-oxoethyl (2S)-2-(1,3-dioxo-1,3,3a,4,7,7a-hexahydro-2H-isoindol-2-yl)-4-methylpentanoate]
cruzain
  inhibition at 100 µM: 67%
  IC50: 40.1 µM

## CC(C)C[C@@H](C(=O)OCC(=O)Nc1ccccc1)N1C(=O)C2CC=CCC2C1=O (stereo partly drawn) [3d, 2-oxo-2-(phenylamino)ethyl (2S)-2-(1,3-dioxo-1,3,3a,4,7,7a-hexahydro-2H-isoindol-2-yl)-4-methylpentanoate]
cruzain
  inhibition at 100 µM: 76%
  decrease in potency against cruzain relative to 3a: 8 fold
  IC50: 16.7 ± 1.3 µM
[1]
  IC50: > 100 µM

## CC(C)C[C@@H](C(=O)OCC(=O)Nc1ccc(F)cc1)N1C(=O)C2CC=CCC2C1=O (stereo partly drawn) [3e, 2-((4-fluorophenyl)amino)-2-oxoethyl (2S)-2-(1,3-dioxo-1,3,3a,4,7,7a-hexahydro-2H-isoindol-2-yl)-4-methylpentanoate]
cruzain
  inhibition at 100 µM: 74%
  IC50: 20.5 ± 1.3 µM
[1]
  IC50: > 100 µM

## CC(C)C[C@@H](C(=O)OCC(=O)Nc1ccc(Br)cc1)N1C(=O)C2CC=CCC2C1=O (stereo partly drawn) [3f, 2-((4-bromophenyl)amino)-2-oxoethyl (2S)-2-(1,3-dioxo-1,3,3a,4,7,7a-hexahydro-2H-isoindol-2-yl)-4-methylpentanoate]
cruzain
  inhibition at 100 µM: 53%

## CC(C)C[C@@H](C(=O)OCC(=O)Nc1ccc(Cl)cc1)N1C(=O)C2CC=CCC2C1=O (stereo partly drawn) [3g, 2-((4-chlorophenyl)amino)-2-oxoethyl (2S)-2-(1,3-dioxo-1,3,3a,4,7,7a-hexahydro-2H-isoindol-2-yl)-4-methylpentanoate]
cruzain
  inhibition at 100 µM: 56%

## CC(C)C[C@@H](C(=O)OCC(=O)Nc1ccc(O)cc1)N1C(=O)C2CC=CCC2C1=O (stereo partly drawn) [3h, 2-((4-hydroxyphenyl)amino)-2-oxoethyl (2S)-2-(1,3-dioxo-1,3,3a,4,7,7a-hexahydro-2H-isoindol-2-yl)-4-methylpentanoate]
cruzain
  inhibition at 100 µM: 6%

## CC(C)C[C@@H](C(=O)OCC(=O)Nc1ccc2ccccc2c1)N1C(=O)C2CC=CCC2C1=O (stereo partly drawn) [3i, 2-(naphthalen-2-ylamino)-2-oxoethyl (2S)-2-(1,3-dioxo-1,3,3a,4,7,7a-hexahydro-2H-isoindol-2-yl)-4-methylpentanoate]
cruzain
  mechanism of inhibition: competitive
  inhibition at 100 µM: 79%
  IC50: 2.1 ± 1.3 µM
[1]
  IC50: 32.8 ± 4.9 µM
[2]
  CC50 at 72 h: > 100 µM
[3]
  CC50 at 72 h: 45 ± 8 µM

## CC(C)C[C@@H](C(=O)OCC(=O)Nc1ccc(F)c([N+](=O)[O-])c1)N1C(=O)C2CC=CCC2C1=O (stereo partly drawn) [3j, 2-((4-fluoro-3-nitrophenyl)amino)-2-oxoethyl (2S)-2-(1,3-dioxo-1,3,3a,4,7,7a-hexahydro-2H-isoindol-2-yl)-4-methylpentanoate]
cruzain
  inhibition at 100 µM: 56%

## CC(C)CC(C(=O)OCC(=O)Nc1ccc([N+](=O)[O-])cc1)N1C(=O)C2CC=CCC2C1=O (centres unmarked) [3l]
cruzain
  inhibition at 100 µM: 67%

## COc1ccc(NC(=O)COC(=O)C(CC(C)C)N2C(=O)C3CC=CCC3C2=O)c([N+](=O)[O-])c1 (centres unmarked) [3m]
cruzain
  inhibition at 100 µM: 53%

## COc1ccc(NC(=O)COC(=O)[C@H](CC(C)C)N2C(=O)c3ccccc3C2=O)cc1Cl [10a, 2-((3-chloro-4-methoxyphenyl)amino)-2-oxoethyl (S)-2-(1,3-dioxoisoindolin-2-yl)-4-methylpentanoate]
cruzain
  inhibition at 100 µM: 39%

## COc1ccc(NC(=O)COC(=O)[C@H](CC(C)C)N2C(=O)C3CCCCC3C2=O)cc1Cl (stereo partly drawn) [10b, 2-((3-chloro-4-methoxyphenyl)amino)-2-oxoethyl (2S)-2-(1,3-dioxooctahydro-2H-isoindol-2-yl)-4-methylpentanoate]
cruzain
  inhibition at 100 µM: 75%
  decrease in potency against cruzain relative to 3a: 2 fold
  IC50: 4.2 ± 1.5 µM
[1]
  IC50: > 100 µM

## COc1ccc(NC(=O)COC(=O)CN2C(=O)C3CC=CCC3C2=O)cc1Cl (centres unmarked) [10g, 2-((3-chloro-4-methoxyphenyl)amino)-2-oxoethyl 2-(1,3-dioxo-1,3,3a,4,7,7a-hexahydro-2H-isoindol-2-yl)acetate]
cruzain
  activity against cruzain (in words): inactive
  inhibition at 100 µM: 0%

## COc1ccc(NC(=O)COC(=O)[C@H](Cc2ccccc2)N2C(=O)C3CC=CCC3C2=O)cc1Cl (stereo partly drawn) [10h, 2-((3-chloro-4-methoxyphenyl)amino)-2-oxoethyl (2S)-2-(1,3-dioxo-1,3,3a,4,7,7a-hexahydro-2H-isoindol-2-yl)-3-phenylpropanoate]
cruzain
  activity against cruzain (in words): active
  mechanism of inhibition: competitive
  inhibition at 100 µM: 96%
  IC50: 1.4 ± 0.8 µM
cruzain; more active than 3a
  increase in potency against cruzain relative to 3a: 2 fold
[1]
  IC50: > 100 µM
  activity against T. cruzi (in words): inactive

## COc1ccc(NC(=O)COC(=O)C(Cc2ccccc2)N2C(=O)C3CC=CCC3C2=O)cc1Cl (centres unmarked) [10hrac, 2-((3-chloro-4-methoxyphenyl)amino)-2-oxoethyl 2-(1,3-dioxo-1,3,3a,4,7,7a-hexahydro-2H-isoindol-2-yl)-3-phenylpropanoate]
cruzain
  IC50: 1.16 µM

## COc1ccc(NC(=O)COC(=O)[C@@H](Cc2ccc3ccccc3c2)N2C(=O)C3CC=CCC3C2=O)cc1Cl (stereo partly drawn) [10i, 2-((3-chloro-4-methoxyphenyl)amino)-2-oxoethyl (2R)-2-(1,3-dioxo-1,3,3a,4,7,7a-hexahydro-2H-isoindol-2-yl)-3-(naphthalen-2-yl)propanoate]
cruzain
  inhibition at 100 µM: 58%

## COc1ccc(NC(=O)COC(=O)[C@H](CC(C)C)N2CCCC2)cc1Cl [10k, 2-((3-chloro-4-methoxyphenyl)amino)-2-oxoethyl (S)-4-methyl-2-(pyrrolidin-1-yl)pentanoate]
cruzain
  activity against cruzain (in words): inactive
  inhibition at 100 µM: 6%
[1]
  IC50: > 100 µM
  activity against T. cruzi (in words): inactive

## COc1cccc2c1C(=O)c1c(O)c3c(c(O)c1C2=O)C[C@@](O)(C(=O)CO)C[C@@H]3O[C@H]1C[C@H](N)[C@H](O)[C@H](C)O1 [Doxorubicin, doxorubicin, reference compound]
[2]
  CC50 at 72 h: 0.21 ± 0.09 µM
[3]
  CC50 at 72 h: 0.4 ± 0.1 µM

## COc1ccc(NC(=O)CNC(=O)C(CC(C)C)N2C(=O)C3CC=CCC3C2=O)cc1Cl (centres unmarked) [compound 5, N-(2-((3-chloro-4-methoxyphenyl)amino)-2-oxoethyl)-2-(1,3-dioxo-1,3,3a,4,7,7a-hexahydro-2H-isoindol-2-yl)-4-methylpentanamide]
cruzain
  inhibition at 100 µM: 38%
